“And” between values parts separate entries of the source, which are not always exact repeats. Equal entries are not always repeated. Where two headings read alike, the source gives them in different places.
Experiments:
hABHD12 [1] = molecular target: T1, hABHD12 (Homo sapiens, UniProt Q8N2K0); experiment: Free fatty acid release assay, hABHD12-HEK293 lysates; assay type: biochemical; conditions: 25 µM substrate; without BSA; 10 and 20 min
T1 construct: expressed in transfected cells; host or cells: HEK293
T1 sequence (Q8N2K0 1-398): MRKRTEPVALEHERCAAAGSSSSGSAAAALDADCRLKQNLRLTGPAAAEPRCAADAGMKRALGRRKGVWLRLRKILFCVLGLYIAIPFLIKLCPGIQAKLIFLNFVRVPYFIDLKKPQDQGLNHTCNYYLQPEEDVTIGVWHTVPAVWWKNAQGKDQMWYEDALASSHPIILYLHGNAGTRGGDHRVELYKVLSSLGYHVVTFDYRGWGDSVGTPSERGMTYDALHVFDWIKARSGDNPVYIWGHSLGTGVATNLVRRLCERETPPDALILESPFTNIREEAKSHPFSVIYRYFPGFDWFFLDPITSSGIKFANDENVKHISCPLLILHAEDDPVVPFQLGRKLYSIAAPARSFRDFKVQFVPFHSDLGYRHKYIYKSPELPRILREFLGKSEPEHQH
Experimental: (§1) Figure 4 Fatty acid liberation from various substrates when incubated together with lysates of HEK293 cells expressing hBAT5 or hABHD12. […] Assay blank and fatty acid standard (C18∶1) were included for each condition. FFA content was determined at time-points 10 and 20 min. Data are mean ± SEM from quadruplicate wells in one experiment.
(§2) We adapted the Free Fatty Acid Assay Kit (Cayman Chemical Item Number 700310) to kinetically monitor fatty acid release from selected substrates using lysates of HEK293 cells (0.3 µg/well) transiently expressing hBAT5 or hABHD12 (as a positive control). The assay protocol was tailored to closely follow the scheme of the 96-well-plate glycerol assay with the exception that BSA was omitted. […] For each tested substrate, assay blank without enzyme and a fatty acid standard (C18∶1-FA, 500 pmol/well) was included.

hBAT5 [2] = molecular target: T2, hBAT5 (Homo sapiens, UniProt O95870); experiment: Free fatty acid release assay, hBAT5-HEK293 lysates; assay type: biochemical; design: host or cells: HEK293; conditions: 25 µM substrate; without BSA; 10 and 20 min
T2 sequence (O95870 1-558): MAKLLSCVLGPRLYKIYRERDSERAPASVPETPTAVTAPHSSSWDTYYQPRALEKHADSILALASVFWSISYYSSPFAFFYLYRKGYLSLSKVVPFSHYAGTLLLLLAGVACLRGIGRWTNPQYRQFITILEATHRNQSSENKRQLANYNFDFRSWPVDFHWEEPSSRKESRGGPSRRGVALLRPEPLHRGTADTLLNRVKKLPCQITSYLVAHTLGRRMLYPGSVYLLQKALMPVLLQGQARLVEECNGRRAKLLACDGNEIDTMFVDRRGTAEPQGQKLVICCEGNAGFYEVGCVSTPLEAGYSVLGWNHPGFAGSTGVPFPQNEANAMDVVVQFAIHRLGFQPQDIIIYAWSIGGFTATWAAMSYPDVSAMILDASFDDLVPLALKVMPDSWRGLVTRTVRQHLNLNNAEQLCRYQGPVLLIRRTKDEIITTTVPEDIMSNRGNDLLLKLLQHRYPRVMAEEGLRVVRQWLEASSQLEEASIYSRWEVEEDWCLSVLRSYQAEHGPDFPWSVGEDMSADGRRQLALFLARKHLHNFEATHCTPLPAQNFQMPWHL
Experimental: as §1, §2

hABHD6 = molecular target: T3, hABHD6 (Homo sapiens, UniProt Q9BV23); experiment: Hydrolase activity assay, hABHD6-HEK lysates; assay type: biochemical; conditions: IC50, hABHD6-HEK lysates
T3 construct: expressed in transfected cells; host or cells: HEK293
T3 sequence (Q9BV23 1-337): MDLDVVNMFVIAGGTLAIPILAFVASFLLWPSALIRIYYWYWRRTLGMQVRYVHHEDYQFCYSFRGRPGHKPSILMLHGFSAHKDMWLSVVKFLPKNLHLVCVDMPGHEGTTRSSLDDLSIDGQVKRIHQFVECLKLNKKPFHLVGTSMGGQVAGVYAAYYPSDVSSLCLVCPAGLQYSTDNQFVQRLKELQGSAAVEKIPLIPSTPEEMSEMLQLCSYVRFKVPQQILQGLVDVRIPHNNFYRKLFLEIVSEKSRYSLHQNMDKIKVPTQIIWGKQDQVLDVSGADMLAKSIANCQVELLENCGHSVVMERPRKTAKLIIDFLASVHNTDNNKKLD

hFAAH = molecular target: T4, hFAAH (Homo sapiens, UniProt O00519); experiment: FAAH activity assay, hFAAH-COS7 membranes (3H-anandamide); assay type: biochemical
T4 construct: expressed in transfected cells; host or cells: COS-7
T4 sequence (O00519 1-579): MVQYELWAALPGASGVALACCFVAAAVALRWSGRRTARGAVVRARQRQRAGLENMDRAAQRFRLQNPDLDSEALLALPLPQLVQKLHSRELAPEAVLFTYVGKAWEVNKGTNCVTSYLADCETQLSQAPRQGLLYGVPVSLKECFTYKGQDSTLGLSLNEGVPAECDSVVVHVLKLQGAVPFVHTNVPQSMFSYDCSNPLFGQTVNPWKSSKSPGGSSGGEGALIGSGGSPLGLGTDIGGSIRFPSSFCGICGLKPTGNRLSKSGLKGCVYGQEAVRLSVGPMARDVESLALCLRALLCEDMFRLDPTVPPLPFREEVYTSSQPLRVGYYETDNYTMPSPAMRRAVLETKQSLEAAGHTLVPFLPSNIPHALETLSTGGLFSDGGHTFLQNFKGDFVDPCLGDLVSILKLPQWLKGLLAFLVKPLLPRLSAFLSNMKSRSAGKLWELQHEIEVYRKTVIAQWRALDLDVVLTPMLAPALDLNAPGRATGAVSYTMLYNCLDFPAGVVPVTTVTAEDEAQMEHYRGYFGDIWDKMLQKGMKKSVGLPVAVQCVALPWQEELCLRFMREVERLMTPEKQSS

hMAGL = molecular target: T5, hMAGL (Homo sapiens, UniProt Q99685); experiment: Hydrolase activity assay, hMAGL-HEK lysates; assay type: biochemical
T5 construct: expressed in transfected cells; host or cells: HEK
T5 sequence (Q99685 1-303): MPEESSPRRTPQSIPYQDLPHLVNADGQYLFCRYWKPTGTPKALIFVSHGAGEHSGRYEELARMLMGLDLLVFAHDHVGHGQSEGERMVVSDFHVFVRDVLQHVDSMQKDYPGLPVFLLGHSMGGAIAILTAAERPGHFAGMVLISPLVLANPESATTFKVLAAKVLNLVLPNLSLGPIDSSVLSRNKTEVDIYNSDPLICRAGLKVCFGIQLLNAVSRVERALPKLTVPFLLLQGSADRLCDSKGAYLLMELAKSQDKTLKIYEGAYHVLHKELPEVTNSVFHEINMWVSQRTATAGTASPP

hABHD12 [3] = molecular target: T1, hABHD12; experiment: Hydrolase activity assay, hABHD12-HEK lysates; assay type: biochemical
MAGL = molecular target: T6, MAGL (Mus musculus, UniProt O35678); experiment: Competitive ABPP, mouse brain membrane proteome: MAGL doublet; conditions: reference inhibitor at the indicated concentration, used to identify the band (refs 21, 22)
T6 sequence (O35678 1-303): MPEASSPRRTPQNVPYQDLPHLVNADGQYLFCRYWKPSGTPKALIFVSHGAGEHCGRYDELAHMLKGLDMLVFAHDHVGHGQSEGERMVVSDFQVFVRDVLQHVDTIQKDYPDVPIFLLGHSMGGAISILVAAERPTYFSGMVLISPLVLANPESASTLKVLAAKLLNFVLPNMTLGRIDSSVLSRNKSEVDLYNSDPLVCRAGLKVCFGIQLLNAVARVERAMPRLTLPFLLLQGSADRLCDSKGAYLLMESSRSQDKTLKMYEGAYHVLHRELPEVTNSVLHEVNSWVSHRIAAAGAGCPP

hABHD12 [4] = molecular target: T1, hABHD12; design: method as in PMID 22969151; conditions: hABHD12-HEK lysates; cited from earlier work
hBAT5 [5] = molecular target: T2, hBAT5; experiment: Inhibition of 1-LG hydrolysis in hBAT5-HEK293 lysates (fluorescent glycerol assay); assay type: biochemical; design: host or cells: HEK293; conditions: 1-LG 25 µM; 30 min inhibitor pretreatment; monitored 90 min; mean, n=3; read-out: IC50
BAT5 = molecular target: T7, BAT5 (Mus musculus, UniProt Q9Z1Q2); experiment: Competitive ABPP, mouse brain membrane proteome: BAT5 band; conditions: reference inhibitor at the indicated concentration, used to identify the band (refs 4, 18)
T7 sequence (Q9Z1Q2 1-558): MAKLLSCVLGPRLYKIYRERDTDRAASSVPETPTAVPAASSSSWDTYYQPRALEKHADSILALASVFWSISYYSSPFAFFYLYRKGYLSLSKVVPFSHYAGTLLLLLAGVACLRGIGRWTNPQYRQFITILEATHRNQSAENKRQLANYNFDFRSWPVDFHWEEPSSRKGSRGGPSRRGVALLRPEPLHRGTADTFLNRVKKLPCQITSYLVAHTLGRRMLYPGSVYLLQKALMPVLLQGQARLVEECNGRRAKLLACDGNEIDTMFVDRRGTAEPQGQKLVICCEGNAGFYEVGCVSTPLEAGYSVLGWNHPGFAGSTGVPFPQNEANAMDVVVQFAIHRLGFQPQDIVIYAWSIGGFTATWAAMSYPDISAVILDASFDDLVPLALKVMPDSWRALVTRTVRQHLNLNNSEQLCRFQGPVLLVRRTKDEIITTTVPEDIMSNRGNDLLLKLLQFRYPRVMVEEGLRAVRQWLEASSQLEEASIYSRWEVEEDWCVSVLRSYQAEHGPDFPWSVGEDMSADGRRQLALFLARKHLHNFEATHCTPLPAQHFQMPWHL

ABHD6 = molecular target: T8, ABHD6 (Mus musculus, UniProt Q8R2Y0); experiment: Competitive ABPP, mouse brain membrane proteome: ABHD6 band
T8 sequence (Q8R2Y0 1-336): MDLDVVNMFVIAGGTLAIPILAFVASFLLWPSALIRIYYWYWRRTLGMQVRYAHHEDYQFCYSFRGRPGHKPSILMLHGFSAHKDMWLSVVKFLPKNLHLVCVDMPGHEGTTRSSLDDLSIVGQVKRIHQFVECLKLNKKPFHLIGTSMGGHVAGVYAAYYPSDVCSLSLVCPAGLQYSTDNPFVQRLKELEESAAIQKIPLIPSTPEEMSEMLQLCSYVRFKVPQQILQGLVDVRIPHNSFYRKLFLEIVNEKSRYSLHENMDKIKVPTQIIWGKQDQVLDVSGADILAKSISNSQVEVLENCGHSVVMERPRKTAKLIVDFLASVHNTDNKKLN

[6] = substrate: CCCCC/C=C\C/C=C\CCCCCCCCOCC(O)CO; experiment: cells, lysate or membranes named; conditions: other: substrate of hBAT5, time-point 90 min, n=3
Experimental: HEK293 cells were transiently transfected with the cDNA encoding hBAT5, as detailed in the Methods section. After 48 h, cells were harvested and lysates prepared for hydrolase activity measurements using a sensitive fluorescent glycerol assay. […] Glycerol production was determined at time-point 60 min.
After 48 h, cells were harvested and lysates prepared for hydrolase activity measurements. Cellular lysates (0.3 µg/well) were incubated together with the indicated concentrations of 1-LG in assay mixes containing (+ BSA) or not (– BSA) 0.5% (w/v) BSA (A) or with 15d-PGJ2-G in assay mix containing BSA (B). […] As crude cellular lysates were used, total protein concentration was used instead of true enzyme concentration. […] Values are mean ± SEM from three independent experiments.
Glycerol liberated from the hydrolysis of glycerolipid substrates was determined kinetically using a fluorometric assay, essentially as previously described [10]. Briefly, glycerol production was coupled via a three-step enzymatic cascade to hydrogen peroxide (H2O2) dependent generation of resorufin whose fluorescence (λex 530; λem 590 nm) was kinetically monitored using a Tecan Infinite M200 plate reader (Tecan Group Ltd., Männedorf, Switzerland). The assays routinely contained 0.5% (w/v) BSA (essentially fatty acid free) as a carrier for lipophilic compounds. […] The twelve MAG substrates were tested also in assays without BSA. In addition, four commercially available PG-Gs were included. To monitor assay performance, assay blanks without enzyme, cellular background (HEK293/Mock cell lysates) as well as a glycerol standard were included for each tested substrate. Fluorescence of the assay blank was subtracted before calculation of the final results.

CCCCC/C=C\C/C=C\C/C=C\C/C=C\CCCC(=O)OC[C@@H](O)CO [1-AG, 1-arachidonoylglycerol]
fatty acid release by hABHD12 (in words) (hABHD12 [1]): hydrolyzed
fatty acid release by hBAT5 (in words) (hBAT5 [2]): hydrolyzed

CCC(C)C(O)C(C)C(=O)C(C)C=C(C)CC(C)C1OC(=O)C1C (centres unmarked) [Ebelactone A, ebelactone A]
IC50 (hABHD6): 870 nM
remaining activity at 10 µM (hFAAH): 87.3%
sensitivity of hFAAH (in words) (hFAAH): resistant
remaining activity at 10 µM (hMAGL): 90.8%
sensitivity of hMAGL (in words) (hMAGL): resistant
remaining activity at 10 µM (hABHD12 [3]): 100%
sensitivity of hABHD12 (in words) (hABHD12 [3]): resistant

O=C(N1CCC(C(c2ccc3c(c2)OCO3)c2ccc3c(c2)OCO3)CC1)n1cncn1 [JJKK-048]
inhibition of probe labeling of MAGL by reference inhibitor (MAGL): inhibited

CCCCCCCC/C=C\CCCCCCCC(=O)OC[C@@H](O)COP(=O)(O)O [LPA, 1-oleoyl-lysophosphatidic acid]
fatty acid release by hABHD12 (in words) (hABHD12 [1]): not from LPA
fatty acid release by hBAT5 (in words) (hBAT5 [2]): no statistically significant liberation of oleic acid

CCCCCCCC/C=C\CCCCCCCC(=O)OC[C@@H](O)COP(=O)(O)OC[C@H](N)C(=O)O [LPS, 1-oleoyl-lysophosphatidylserine]
fatty acid release by hABHD12 (in words) (hABHD12 [1]): catalyzed oleic acid release
fatty acid release by hBAT5 (in words) (hBAT5 [2]): no statistically significant liberation of oleic acid

CCCCCCCCCCC[C@@H](C[C@@H]1OC(=O)[C@H]1CCCCCC)OC(=O)[C@H](CC(C)C)NC=O [THL, tetrahydrolipstatin]
IC50 (hABHD12 [4]): 193 nM
IC50 (hBAT5 [5]): 170 nM
inhibition of probe labeling of BAT5 by reference inhibitor (BAT5): inhibited
inhibition of probe labeling of ABHD6 by reference inhibitor (ABHD6): inhibited
remaining activity at 10 µM (hFAAH): 100%
remaining activity at 10 µM (hMAGL; at 10^−5 M, read-out: Remaining activity): 88.1%

CN(Cc1cccc(-c2ccncc2)c1)C(=O)Oc1ccc(-c2ccc(C(N)=O)cc2)cc1 [WWL70]
inhibition of probe labeling of ABHD6 by reference inhibitor (ABHD6; reference inhibitor at the indicated concentration, used to identify the band (refs 18, 23, 24)): inhibited

B1: hBAT5 (Homo sapiens) (protein)
chain: MAKLLSCVLGPRLYKIYRERDSERAPASVPETPTAVTAPHSSSWDTYYQPRALEKHADSILALASVFWSISYYSSPFAFFYLYRKGYLSLSKVVPFSHYAGTLLLLLAGVACLRGIGRWTNPQYRQFITILEATHRNQSSENKRQLANYNFDFRSWPVDFHWEEPSSRKESRGGPSRRGVALLRPEPLHRGTADTLLNRVKKLPCQITSYLVAHTLGRRMLYPGSVYLLQKALMPVLLQGQARLVEECNGRRAKLLACDGNEIDTMFVDRRGTAEPQGQKLVICCEGNAGFYEVGCVSTPLEAGYSVLGWNHPGFAGSTGVPFPQNEANAMDVVVQFAIHRLGFQPQDIIIYAWSIGGFTATWAAMSYPDVSAMILDASFDDLVPLALKVMPDSWRGLVTRTVRQHLNLNNAEQLCRYQGPVLLIRRTKDEIITTTVPEDIMSNRGNDLLLKLLQHRYPRVMAEEGLRVVRQWLEASSQLEEASIYSRWEVEEDWCLSVLRSYQAEHGPDFPWSVGEDMSADGRRQLALFLARKHLHNFEATHCTPLPAQNFQMPWHL
Km ([6]; with 0.5% BSA): 137.8 ± 30.6 µM and 140 µM
Km ([6]; without BSA): 6.9 ± 1.7 µM
